# Assay results from patent publication US20250144054A1, “SMALL MOLECULE STAT3 INHIBITOR FOR TREATING TRIPLE NEGATIVE BREAST CANCER” (UNIVERSITY OF MARYLAND, BALTIMORE, priority 2022, published 2025).
# How the values were obtained:
# SUM159 cells = test: Wound healing assay, SUM159 cells; type: cell-based, human; conditions: SUM159, vs DMSO
# Procedure: Wound healing assay. MDA-MB-231, SUM159, and 4T1 cells were seeded in a 6-well plate and cultured until fully confluent. A straight scratch crossing the monolayer was created using a 200 μl pipette tip and images of scratched areas were taken. Next, cells were treated with DMSO or LLL12B. Then, images were taken until the scratch of DMSO-treated cells was closed and the relative migration (%) was calculated.
# Given the relevance between cancer cell migration and metastasis, cell migration was evaluated using wound healing assay following LLL12B and Talazoparib treatment.
# In FIG. 12, L: LLL12B; T: Talazoparib; L0.5:0.5 μM LLL12B; L0.25:0.25 μM LLL12B; T0.5:0.5 μM Talazoparib; T10: 10 μM Talazoparib. In FIG. 13, L: LLL12B; T: Talazoparib; L0.5:0.5μ M LLL12B; T10: 10μ M Talazoparib; T20: 20μ M Talazoparib. In FIG. 14, L: LLL12B; T: Talazoparib; L0.5:0.5μ M LLL12B; T10: 10μ M Talazoparib; T20: 20μ M Talazoparib.
# L: LLL12B; A: Abemaciclib; L0.5:0.5 μM LLL12B; A2.5:2.5 μM Abemaciclib; A1: 1 μM Abemaciclib
# STAT3 [1] = test: IL-6 induced STAT3 phosphorylation, Western blot, MDA-MB-231 cells; type: cell-based, human; conditions: pretreated 2 hours serum-free, 50 ng/ml IL-6 30 minutes
# Procedure: (§1) (A) The chemical structures of LLL12B and LLL12. The carbamate ester bond of LLL12B is hydrolytically cleaved by the tumor-associated plasmin to release LLL12. (B) SUM159 cells were seeded in a 6-well plate and treated with LLL12B for 8 hours. Cells were stained with Phospho-Stat3 (Tyr705) and DAPI (indicated by arrows). Green: P-STAT3 (Y705); Blue: DAPI. T47D (C) and MDA-MB-231 (D) breast cancer cells were pretreated with DMSO or LLL12B in a serum-free medium for 2 hours and stimulated with 50 ng/ml of IL-6, IFN-γ, or EGF for additional 30 minutes. Cells were collected and analyzed by Western blot. GAPDH served as a protein loading control.
# (§2) Western blot. Cells were collected and total protein was extracted using cell lysis buffer (Cell Signaling Technology, Danvers, MA, USA). Protein concentration was determined using the Pierce BCA Protein Assay Kit (Thermo Fisher Scientific, Waltham, MA, USA) according to the manufacturer's instructions. Equal amounts of protein were separated by 10% SDS-PAGE gels and transferred to PVDF membranes. Membranes were blocked in 5% non-fat milk at room temperature and probed with specific antibodies P-STAT3 (Y705), STAT3, Cyclin D1, Cleaved Caspase-3, P-STAT1 (Y701), STAT1, P-ERK, ERK or GAPDH (1:1000, Cell Signaling Technology, Danvers, MA, USA) at 4° C. overnight. […]
# STAT1 [2] = test: IFN-γ induced STAT1 phosphorylation, Western blot, T47D cells; type: cell-based, human; conditions: pretreated 2 hours, 50 ng/ml IFN-γ 30 minutes
# Procedure: as §1, §2
# 4T1 cells = test: Annexin V and PI flow cytometry, 4T1 cells; type: cell-based, murine; conditions: 4T1, 8-12 hours, vs DMSO
# Procedure: Flow cytometry analysis. Flow cytometry was performed to detect cell apoptosis. The APC Annexin V Apoptosis Detection Kit (Biolegend, San Diego, CA, USA) was used for Annexin V staining. Cells were seeded in a 35 mm culture dish at a density of 1×10^5 cells/dish. After overnight incubation, cells were treated with DMSO or LLL12B for 8-12 hours. Cells were harvested and stained with Annexin V-APC and propidium iodide (PI) according to the manufacturer's instructions. After staining, cells were counted using a FACSCanto II flow cytometer (BD Biosciences, San Jose, CA, USA).
# ovarian cancer cells = conditions: ref [45]; cited from earlier work
# STAT3 [3] = target: STAT3 (Homo sapiens, UniProt P40763); conditions: refs [25,27,28]; cited from earlier work
# caspase-3/7 = test: Caspase-3/7 activity assay, SUM159 cells; type: cell-based, human; conditions: SUM159, 5 hours, vs DMSO
# Procedure: Caspase-3/7 activity assay. The Caspase-3/7 Fluorescence Assay Kit (Cayman, Ann Arbor, MI, USA) was used to detect the activation of caspase-3/7 and the assay was performed according to the manufacturer's instructions. Briefly, MDA-MB-231, SUM159, and 4T1 cells were seeded in a 96-well plate in triplicate. After overnight incubation, cells were treated with either LLL12B or DMSO for 5 hours. Cells were lysed and processed to measure caspase-3/7 activity and the fluorescence intensity was read (excitation=485 nm; emission=535 nm).
# STAT1 [4] = test: IFN-γ induced STAT1 phosphorylation, Western blot, MDA-MB-231 cells; type: cell-based, human; conditions: pretreated 2 hours, 50 ng/ml IFN-γ 30 minutes
# Procedure: as §1, §2
# ERK [5] = test: EGF induced ERK phosphorylation, Western blot, T47D cells; type: cell-based, human; conditions: pretreated 2 hours, 50 ng/ml EGF 30 minutes
# Procedure: as §1, §2
# ERK [6] = test: EGF induced ERK phosphorylation, Western blot, MDA-MB-231 cells; type: cell-based, human; conditions: pretreated 2 hours, 50 ng/ml EGF 30 minutes
# Procedure: as §1, §2
# MDA-MB-231 cells = test: Colony formation assay, MDA-MB-231 cells; type: cell-based, human; conditions: MDA-MB-231, 24 hours treatment, 7 days drug-free, vs DMSO
# Procedure: Colony formation assay. MDA-MB-231, SUM159, and 4T1 cells were seeded in a 6-well plate at a density of 1000 cells/well and treated with DMSO or LLL12B for 24 hours, and then cultured in a drug-free culture medium for 7 days. Colonies were fixed with methanol for 30 min and stained with 1% crystal violet in 25% methanol for 2 hours at room temperature.
# STAT3 [7] = test: IL-6 induced STAT3 phosphorylation, Western blot, T47D cells; type: cell-based, human; conditions: pretreated 2 hours serum-free, 50 ng/ml IL-6 30 minutes
# Procedure: as §1, §2
# STAT3 (Homo sapiens, UniProt P40763), sequence (P40763 whole entry, species assumed): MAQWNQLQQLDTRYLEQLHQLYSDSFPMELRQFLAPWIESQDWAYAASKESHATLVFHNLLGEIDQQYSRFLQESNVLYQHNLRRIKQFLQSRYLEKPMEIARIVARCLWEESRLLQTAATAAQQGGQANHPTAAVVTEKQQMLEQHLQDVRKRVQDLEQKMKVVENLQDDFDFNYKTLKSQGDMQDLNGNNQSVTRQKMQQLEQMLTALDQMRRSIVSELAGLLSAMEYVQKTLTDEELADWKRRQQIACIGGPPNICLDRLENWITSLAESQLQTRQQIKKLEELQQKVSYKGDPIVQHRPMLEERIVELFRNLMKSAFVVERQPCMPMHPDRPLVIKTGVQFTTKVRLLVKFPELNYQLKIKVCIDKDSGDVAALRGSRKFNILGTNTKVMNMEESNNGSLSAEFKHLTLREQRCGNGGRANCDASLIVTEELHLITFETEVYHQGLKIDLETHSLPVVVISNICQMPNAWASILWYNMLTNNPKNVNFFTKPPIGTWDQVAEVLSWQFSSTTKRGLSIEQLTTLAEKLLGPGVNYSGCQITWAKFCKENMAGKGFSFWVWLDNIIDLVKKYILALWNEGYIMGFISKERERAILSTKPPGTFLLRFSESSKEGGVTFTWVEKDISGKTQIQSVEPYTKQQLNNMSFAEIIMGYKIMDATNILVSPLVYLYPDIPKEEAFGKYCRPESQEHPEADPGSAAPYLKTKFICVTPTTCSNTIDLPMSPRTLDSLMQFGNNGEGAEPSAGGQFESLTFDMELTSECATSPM
compound,measurement,setting,value
CN(C)C(=O)Oc1cccc2c1C(=O)c1cccc(S(N)(=O)=O)c1C2=O [LLL12B],wound closure (cell migration),SUM159 cells,effectively inhibited
same,IL-6 induced phosphorylation of STAT3 (Y705),STAT3 [1],inhibited
same,induction of P-STAT1 (Y701) stimulated by IFN-γ,STAT1 [2],did not inhibit
same,percentage of apoptotic cells,4T1 cells,significantly increased
same,sensitization to paclitaxel and cisplatin,ovarian cancer cells,sensitized
same,binding to the pTyr705 binding site of STAT3,STAT3 [3],binds directly
same,activation of caspase-3/7,caspase-3/7,induced the activation
same,induction of P-STAT1 (Y701) stimulated by IFN-γ,STAT1 [4],did not inhibit
same,induction of P-ERK stimulated by EGF,ERK [5],did not inhibit
same,inhibition of P-ERK stimulated by EGF,ERK [6],little effect
same,colony numbers,MDA-MB-231 cells,significant reduction
same,IL-6 induced phosphorylation of STAT3 (Y705),STAT3 [7],inhibited
